How the values were obtained:
Test in all cases: combination Emax (second highest fraction inhibited in the dose matrix, 72 h); higher = more inhibition; extreme values may be limits of the assay
ACHN (Kidney Carcinoma) = test system: ACHN (Kidney Carcinoma)
Outline: (§1)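 Cell lines grown in DMEM/F12 or RPMI with 10% FBS were plated in 1536-well plates and held 24 hours at 37°C, 5% CO2 before 72 hours of exposure to two-drug dose matrices, with DMSO typically at 0.2%. CellTiter-Glo 2.0 luminescence gave viability, which was converted to inhibition. Vehicle wells were set to 0 and blank wells to 1. Combination Emax is the second-highest inhibition in the matrix, and Bliss excess is the observed combination effect minus the expected EA + EB − EA·EB, where EA and EB are the single-agent effects.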

[1] = test system: C-4-I (Cervical Carcinoma)
Outline: as §1

[2] = test system: Caov-4 (Ovarian Carcinoma)
Outline: as §1

[3] = test system: EFM-19 (Breast Carcinoma)
Outline: as §1

EW-24 (Ewing's Sarcoma) = test system: EW-24 (Ewing's Sarcoma)
Outline: as §1

[4] = test system: KMOE-2 (Acute Myeloid Leukemia)
Outline: as §1

[5] = test system: KYSE-450 (Esophageal Squamous Cell Carcinoma)
Outline: as §1

[6] = test system: MIA-PaCa-2 (Pancreatic Carcinoma)
Outline: as §1

NB69 (Neuroblastoma) = test system: NB69 (Neuroblastoma)
Outline: as §1

[7] = test system: NCI-H358 (Lung Adenocarcinoma)
Outline: as §1

[8] = test system: NCI-H727 (Other Solid Carcinomas)
Outline: as §1

[9] = test system: NUGC-3 (Gastric Carcinoma)
Outline: as §1

[10] = test system: OE19 (Esophageal Adenocarcinoma)
Outline: as §1

[11] = test system: OSC-20 (Oral Cavity Carcinoma)
Outline: as §1

PWR-1E (Non-Cancerous) = test system: PWR-1E (Non-Cancerous)
Outline: as §1

[12] = test system: RF-48 (B-Cell Non-Hodgkin's Lymphoma)
Outline: as §1

[13] = test system: SW13 (Other Solid Carcinomas)
Outline: as §1

TK10 (Kidney Carcinoma) = test system: TK10 (Kidney Carcinoma)
Outline: as §1

UACC-62 (Melanoma) = test system: UACC-62 (Melanoma)
Outline: as §1

[14] = test system: VA-ES-BJ (Other Solid Carcinomas)
Outline: as §1

| Compound | combination Emax (ACHN (Kidney Carcinoma)) | combination Emax [1] | combination Emax [2] | combination Emax [3] | combination Emax (EW-24 (Ewing's Sarcoma)) | combination Emax [4] | combination Emax [5] | combination Emax [6] | combination Emax (NB69 (Neuroblastoma)) | combination Emax [7] | combination Emax [8] | combination Emax [9] | combination Emax [10] | combination Emax [11] | combination Emax (PWR-1E (Non-Cancerous)) | combination Emax [12] | combination Emax [13] | combination Emax (TK10 (Kidney Carcinoma)) | combination Emax (UACC-62 (Melanoma)) | combination Emax [14] |
| --- | --- | --- | --- | --- | --- | --- | --- | --- | --- | --- | --- | --- | --- | --- | --- | --- | --- | --- | --- | --- |
| CN(C)CCCOc1ccc(-c2ccc3ncc4c(c3c2)n(C2CCOCC2)c(=O)n4C)cn1 [AZD0156] + C=CCn1c(=O)c2cnc(Nc3ccc(N4CCN(C)CC4)cc3)nc2n1-c1cccc(C(C)(C)O)n1 [AZD1775] (first compound max 1 µM, partner max 1 µM) | 0.933 | 0.755 | 0.753 | 0.607 | 0.279 | 0.854 | 0.583 | 0.595 | 0.877 | 0.472 | 0.333 | 0.552 | 0.427 | 0.233 | 0.678 | 0.602 | 0.147 | 0.353 | 0.391 | 0.381 |
| CN(C)CCCOc1ccc(-c2ccc3ncc4c(c3c2)n(C2CCOCC2)c(=O)n4C)cn1 [AZD0156] + CCN(CCO)CCCOc1ccc2c(Nc3cc(CC(=O)Nc4cccc(F)c4)[nH]n3)ncnc2c1 [AZD2811] (first compound max 1 µM, 7x7, partner max 1 µM) | 0.135 | 0.147 | 0.19 | 0.383 | 0.302 | 0.21 | 0.193 | 0.376 | 0.588 | 0.157 | 0.155 | 0.322 | 0.722 | 0.353 | 0.626 | 0.305 | 0.407 | 0.166 | 0.188 | 0.245 |
| CN(C)CCCOc1ccc(-c2ccc3ncc4c(c3c2)n(C2CCOCC2)c(=O)n4C)cn1 [AZD0156] + C[C@@H]1COCCN1C2=NC(=NC(=C2)C3(CC3)[S@](=N)(=O)C)C4=C5C=CNC5=NC=C4 [AZD6738] (first compound max 1 µM, 7x7, partner max 10 µM) | 0.883 | 0.872 | 0.744 | 0.345 | 0.552 | 0.59 | 0.649 | 0.605 | 0.745 | 0.656 | 0.635 | 0.727 | 0.869 | 0.334 | 0.911 | 0.588 | 0.469 | 0.695 | 0.555 | 0.699 |
| CN(C)CCCOc1ccc(-c2ccc3ncc4c(c3c2)n(C2CCOCC2)c(=O)n4C)cn1 [AZD0156] + O=C(c1cc(Cc2n[nH]c(=O)c3ccccc23)ccc1F)N1CCN(C(=O)C2CC2)CC1 [Olaparib] (first compound max 3 µM, partner max 3 µM) | 0.338 | 0.362 | 0.154 | 0.533 | 0.473 | 0.239 | 0.159 | 0.226 | 0.474 | 0.247 | 0.286 | 0.346 | 0.512 | 0.245 | 0.684 | 0.319 | 0.421 | 0.197 | 0.183 | 0.284 |
| C=CCn1c(=O)c2cnc(Nc3ccc(N4CCN(C)CC4)cc3)nc2n1-c1cccc(C(C)(C)O)n1 [AZD1775] + C1CN(CCC1(C(=O)N[C@@H](CCO)C2=CC=C(C=C2)Cl)N)C3=NC=NC4=C3C=CN4 [Capivasertib] (first compound max 3 µM, partner max 3 µM) | 0.825 | 0.97 | 0.754 | 0.71 | 0.503 | 0.938 | 0.843 | 0.585 | 0.942 | 0.663 | 0.667 | 0.715 | 0.717 | 0.619 | 0.988 | 0.86 | 0.586 | 0.503 | 0.458 | 0.645 |
| Cc1c2c(nn1C)CSCc1cc(n(C)n1)CSc1cc(c3ccccc3c1)OCCCc1c(C(=O)O)n(C)c3c-2c(Cl)ccc13 [AZD5991] + C1CN(CCC1(C(=O)N[C@@H](CCO)C2=CC=C(C=C2)Cl)N)C3=NC=NC4=C3C=CN4 [Capivasertib] (first compound max 1 µM, 7x7, partner max 3 µM) | – | 1 | 0.493 | 0.629 | 0.332 | 0.793 | 0.376 | 0.244 | 0.794 | 0.243 | 0.374 | 0.171 | 0.442 | 0.199 | 0.226 | 0.353 | 0.967 | 0.257 | 0.934 | 0.227 |
| Cc1c2c(nn1C)CSCc1cc(n(C)n1)CSc1cc(c3ccccc3c1)OCCCc1c(C(=O)O)n(C)c3c-2c(Cl)ccc13 [AZD5991] + CN(C)CCCOc1ccc(-c2ccc3ncc4c(c3c2)n(C2CCOCC2)c(=O)n4C)cn1 [AZD0156] (first compound max 1 µM, 7x7, partner max 1 µM) | 0.179 | 1 | 0.511 | 0.494 | 0.291 | 0.797 | 0.251 | 0.289 | 0.666 | 0.308 | 0.289 | 0.369 | 0.573 | 0.256 | 0.29 | – | 0.828 | 0.272 | 0.812 | 0.243 |
| CS(=O)(=O)CCNCc1ccc(-c2ccc3ncnc(Nc4ccc(OCc5cccc(F)c5)c(Cl)c4)c3c2)o1 [Lapatinib] + NC1(c2ccc(-c3nc4ccn5c(=O)[nH]nc5c4cc3-c3ccccc3)cc2)CCC1 [MK-2206] (first compound max 10 µM, 7x7, partner max 10 µM) | 0.676 | – | 0.878 | 0.792 | 0.925 | – | 0.602 | 0.929 | 0.941 | 0.631 | 0.88 | 0.91 | – | – | 0.836 | 0.658 | 0.902 | 0.698 | 0.516 | – |
| O=C(c1cc(Cc2n[nH]c(=O)c3ccccc23)ccc1F)N1CCN(C(=O)C2CC2)CC1 [Olaparib] + CN(CC[C@H](CSC1=CC=CC=C1)NC2=C(C=C(C=C2)S(=O)(=O)NC(=O)C3=CC=C(C=C3)N4CCC(CC4)[C@H](C5=CC=CC=C5C6=CC=C(C=C6)Cl)O)S(=O)(=O)C(F)(F)F)CCO [AZD4320] (first compound max 10 µM, 7x7, partner max 1 µM) | 0.154 | – | 0.181 | 0.428 | 0.606 | – | 0.0781 | 0.184 | 0.943 | 0.182 | 0.433 | – | – | – | – | 0.926 | 0.184 | 0.128 | 0.198 | – |
| O=C(c1cc(Cc2n[nH]c(=O)c3ccccc23)ccc1F)N1CCN(C(=O)C2CC2)CC1 [Olaparib] + COc1nnc2ccc(N3CCC(c4ccc(OCCN5CCN(C)C(=O)[C@H]5C)cc4)CC3)nn12 [AZD5153] (first compound max 10 µM, 7x7, partner max 1 µM) | 0.539 | – | 0.456 | 0.367 | 0.639 | – | 0.235 | 0.852 | 0.959 | 0.295 | 0.288 | – | – | – | – | 0.354 | 0.309 | 0.482 | 0.491 | – |
| O=C(c1cc(Cc2n[nH]c(=O)c3ccccc23)ccc1F)N1CCN(C(=O)C2CC2)CC1 [Olaparib] + Cc1c2c(nn1C)CSCc1cc(n(C)n1)CSc1cc(c3ccccc3c1)OCCCc1c(C(=O)O)n(C)c3c-2c(Cl)ccc13 [AZD5991] (first compound max 10 µM, 7x7, partner max 1 µM) | 0.177 | – | 0.482 | 0.272 | 0.193 | – | 0.0895 | 0.161 | 0.886 | 0.197 | 0.106 | – | – | – | – | 0.365 | 0.763 | 0.0994 | 0.568 | – |
| CCc1c2c(nc3ccc(O)cc13)-c1cc3c(c(=O)n1C2)COC(=O)[C@]3(O)CC [SN-38] + O=C(c1cc(Cc2n[nH]c(=O)c3ccccc23)ccc1F)N1CCN(C(=O)C2CC2)CC1 [Olaparib] (first compound max 0.3 µM, 7x7, partner max 10 µM) | 0.912 | 0.928 | 0.937 | 0.566 | 0.821 | 0.983 | 0.671 | 0.935 | 0.967 | 0.693 | 0.256 | – | 0.309 | 0.746 | – | 0.775 | 0.962 | 0.373 | 0.843 | 0.818 |
| Cc1nc(-c2cn3c(n2)-c2ccc(-c4cnn(C(C)(C)C(N)=O)c4)cc2OCC3)n(C(C)C)n1 [Taselisib] + O=C(Nc1ccc2[nH]nc(-c3ccncc3)c2c1)[C@@H]1CCN(CC(=O)N2CCN(c3ccc(-c4ncccn4)cc3)CC2)C1 [SCH772984] (first compound max 10 µM, 7x7, partner max 5 µM) | 0.692 | – | 0.763 | 0.693 | 0.602 | – | 0.725 | 0.797 | 0.997 | 0.798 | 0.958 | – | – | – | – | 0.36 | 0.894 | 0.773 | 0.955 | – |
| CC1(C)CCC(CN2CCN(c3ccc(C(=O)NS(=O)(=O)c4ccc(NCC5CCOCC5)c([N+](=O)[O-])c4)c(Oc4cnc5[nH]ccc5c4)c3)CC2)=C(c2ccc(Cl)cc2)C1 [Venetoclax] + CS(=O)(=O)CCNCc1ccc(-c2ccc3ncnc(Nc4ccc(OCc5cccc(F)c5)c(Cl)c4)c3c2)o1 [Lapatinib] (first compound max 1 µM, 7x7, partner max 10 µM) | 0.52 | – | 0.304 | 0.207 | 0.245 | – | 0.34 | 0.272 | 0.598 | 0.431 | 0.246 | – | – | – | – | 0.34 | 0.549 | 0.516 | 0.256 | – |
